Laboratory results published in ChEMBL document CHEMBL1759909, “Discovery of 3-aryl-5-acylpiperazinyl-pyrazoles as antagonists to the NK3 receptor” (Bioorg Med Chem Lett, 2011).

Assays:
Rattus norvegicus [1] = species: Rattus norvegicus; details: in vivo, po, 3 mg/kg
Rattus norvegicus [2] = species: Rattus norvegicus; details: in vivo, po, 3 mg/kg; remark: listed apart in the source
in vivo [3] = details: Sprague-Dawley, rat
in vivo [4] = details: Sprague-Dawley, rat, iv, 1 mg/kg
in vivo [5] = details: CD1, mouse, brain/plasma, ip, 5 mg/kg
in vivo [6] = details: CD1, mouse, brain, ip, 5 mg/kg
in vitro [7] = details: rat, liver microsomes
in vitro [8] = details: rat, plasma
in vivo [9] = details: Sprague-Dawley, rat, iv, 1 mg/kg; remark: listed apart in the source
in vivo [10] = details: Sprague-Dawley, rat, plasma, po, 3 mg/kg
in vivo [11] = details: Sprague-Dawley, rat, po, 3 mg/kg

SMILES: COc1ccccc1N1CCN(C(=O)c2cc(-c3ccc(Cl)cc3)n(C)n2)CC1
- AUC (Rattus norvegicus [1]): 90501 ng·min/mL
- F (Rattus norvegicus [2]): 53%
- half-life (in vivo [3]): 310 min
- Vd (in vivo [4]): 3.3 L/kg
- Kp at 10 min (in vivo [5]): 0.64
- concentration at 10 min (in vivo [6]): 1700 ng/g
- half-life (in vitro [7]): 40 min
- remaining at 1 h (in vitro [8]): 100%

SMILES: CC[C@H](NC(=O)c1c(O)c(-c2ccccc2)nc2ccccc12)c1ccccc1 [TALNETANT]
- half-life (in vivo [3]): 450 min
- Vd (in vivo [4]): 1.4 L/kg
- clearance (in vivo [9]): 1.9 mL/min/kg
- AUC (in vivo [10]): 15600 ng·h/mL
- bioavailability (in vivo [11]): 53%
- Kp at 10 min (in vivo [5]): 0.07
- concentration at 10 min (in vivo [6]): 340 ng/g
- half-life (in vitro [7]): 60 min
- remaining at 1 h (in vitro [8]): 100%

SMILES: COc1ccccc1N1CCN(C(=O)c2cc(-c3ccc(Cl)cc3Cl)n[nH]2)CC1
- half-life (in vitro [7]): 45 min
- remaining at 1 h (in vitro [8]): 5%

SMILES: COc1ccccc1N1CCN(C(=O)c2cc(-c3ccc(Cl)cc3)n[nH]2)[C@@H](C)C1
- half-life (in vitro [7]): 2 min
- remaining at 1 h (in vitro [8]): 100%

SMILES: CC(=O)N(C)C1(c2ccccc2)CCN(CCC[C@]2(c3ccc(Cl)c(Cl)c3)CCCN(C(=O)c3ccccc3)C2)CC1 [OSANETANT]
- half-life (in vivo [3]): 110 min
- Vd (in vivo [4]): 8.7 L/kg
- clearance (in vivo [9]): 57 mL/min/kg
- AUC (in vivo [10]): 114 ng·h/mL
- bioavailability (in vivo [11]): 17%
- Kp at 10 min (in vivo [5]): 0.03
- concentration at 10 min (in vivo [6]): 30 ng/g
- half-life (in vitro [7]): 23 min
